According to patent publication US7655832B2, “Rapid-throughput teleost regeneration assay” (The State of Oregon Acting by and Through the State Board …, priority 2006, dated 2010):

How the values were obtained:
[1] = test system: zebrafish larvae caudal fin regeneration; test: Larval fin regeneration with exposure in distinct time windows post amputation; assay type: in vivo; settings: 1 μM
Procedure: Once candidate agents have been determined to affect regeneration, a number of studies may be done. In one example, the IC50 of the candidate agent is determined using methods known in the art. In another example, a secondary screen is performed to aid in identification of a target of the candidate agent. This may be accomplished in many ways. For example, after amputation, the fin undergoes several stages of regeneration. In a first stage, cells migrate into the epithelial wound cap. In a second stage, the blastema differentiates within the wound cap. In a final stage, cells proliferate, leading to outgrowth of the new fin. Thus, by adding the candidate agent to the amputated teleost for short durations of time at different, defined, times after amputation, it is possible to identify which regenerative stage or stages are sensitive to the candidate agent. Specifically, agents present for 0 to 4 hours post amputation (hpa) would preferentially target epithelial wound cap formation. Agents present between 4 and 12 hpa may specifically target blastema formation, and agents present between 12 and 24 hpa may preferentially target cellular differentiation. Finally, agents present between 24 hpa and 72 hpa would target the cellular proliferation stage.
Fertilized eggs were obtained from AB strain zebrafish (University of Oregon, Eugene, Oreg.) for all the experiments. […]

[2] = test system: adult zebrafish caudal fin regeneration; test: Adult zebrafish caudal fin regeneration study; assay type: in vivo
Description: The fish were transferred back to the tanks and were continuously exposed to vehicle or Beclomethasone until the end of the study. The exposure solutions were changed daily. The positive “hits” were of different chemical classes and using structure function analysis, a major cluster of compounds was identified as glucocorticoids (5 of the “hit” compounds). […] We selected glucocorticoids for further studies since this was the largest cluster of “hits”. […] This characteristic morphology occurs because the tissue lateral to the amputation plane continues to grow and partially collapses around the amputation plane. Since the adult fin regeneration model is more widely studied, it was important to determine if chemical “hits” identified in the larval screen would be predictive for the adult fin regeneration responses. Therefore, the regeneration response to glucocorticoids exposure on fin regeneration was also assessed in adult zebrafish.

CCC(=O)OCC(=O)[C@@]1(OC(=O)CC)[C@@H](C)C[C@H]2[C@@H]3CCC4=CC(=O)C=C[C@]4(C)[C@@]3(Cl)[C@@H](O)C[C@@]21C [Beclomethasone, Beclomethasone dipropionate]
larval fin regeneration, exposure for four hours immediately following amputation ([1]; 0-4 hpa): failed to regenerate
larval fin regeneration, exposure beginning at 4 hpa ([1]; from 4 hpa continuously until 3 dpa): completely regenerated their fins
adult caudal fin regeneration ([2]; 0.005 mg/L waterborne, one day pre-exposure then continuous exposure): completely inhibited
new tissue in the adult fin ([2]; at 5 dpa): essentially no new tissue
